{"source": "patent US12378224B2", "about": "(Dong-A Socio Holdings Co., Ltd., priority 2016, dated 2025)"}
{"biological_target": "human c-MER catalytic domain (Homo sapiens (Human), UniProt Q12866)", "sequence (Q12866 587-858)": "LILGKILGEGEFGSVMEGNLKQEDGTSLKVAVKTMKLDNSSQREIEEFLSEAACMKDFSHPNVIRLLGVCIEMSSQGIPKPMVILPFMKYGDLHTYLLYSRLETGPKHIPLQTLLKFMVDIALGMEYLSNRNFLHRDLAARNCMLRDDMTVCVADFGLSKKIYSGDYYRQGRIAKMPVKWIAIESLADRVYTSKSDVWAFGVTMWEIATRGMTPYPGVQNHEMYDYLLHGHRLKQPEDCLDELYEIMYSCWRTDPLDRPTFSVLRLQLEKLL", "test": "TR-FRET Kinase Activity Biochemical Assay (LanthaScreen)", "settings": "10 uM ATP, 1 hour, kinase not given", "excerpt": "For the SAR (structure-activity relationship) and compound screening, LanthaScreen™ TR-FRET (Time-Resolved fluorescence energy transfer) assay was employed using the phospho-tyrosine specific Terbium (Tb)-labelded antibody with a fluorescein labeled poly-GT (glutamate-tyrosine) as a substrate. Upon excitation at 340 nm by UV, the energy from Tb donor of the antibody is transferred to the fluorescein of the phosphorylated poly GT substrate, and fluorescein emits light at 520 nm. The ratio between the intensity of […] was used to quantify the level of kinase activity. The recombinant proteins of human c-MER and AXL catalytic domains, Fluorescein-labeled poly-GT substrate, Tb-labeled anti-phosphorylated tyrosine antibodies, the kinase assay buffer, and 0.5M EDTA solution were purchased (Life technologies, USA). The TR-FRET assays were carried out in the white low volume 384-well plate (Corning, USA). […] 10 mM EDTA was added to terminate the enzyme reaction, and the level of phosphorylation of poly-GT substrate was determined following 30 min incubation with 2 nM Tb-labeled antibody. The fluorescence intensity was measured with Envision™ plate reader (PerkinElmer, USA).", "units": {"IC50": "nM"}}
{"smiles": "Cn1cc(-c2cnc(N)c(C(=O)N[C@@H]3CCN(Cc4ccc(F)c(C5=CCNCC5)c4)C3)c2)cn1", "note": "[Example 252, (R)-2-amino-N-(1-(4-fluoro-3-(1,2,3,6-tetrahydropyridin-4-yl)benzyl)pyrrolidin-3-yl)-5-(1-methyl-1H-pyrazol-4-yl)nicotinamide]", "IC50": "> 1000"}
{"smiles": "CN1CCN(Cc2ccc(-c3cccc(CCN4CC[C@@H](NC(=O)c5cc(-c6cnn(C)c6)cnc5N)C4)c3)cc2)CC1", "note": "[Example 253, (R)-2-amino-5-(1-methyl-1H-pyrazol-4-yl)-N-(1-(2-(4′-((4-methylpiperazin-1-yl)methyl)-[1,1′-biphenyl]-3-yl)ethyl)pyrrolidin-3-yl)nicotinamide]", "IC50": "> 1000"}
{"smiles": "CN(C)Cc1ccc(-c2cccc(NC(=O)N3CC[C@@H](NC(=O)c4cc(-c5cnn(C)c5)cnc4N)C3)c2)cc1", "note": "[Example 266, (R)-2-amino-N-(1-((4′-((dimethylamino)methyl)-[1,1′-biphenyl]-3-yl)carbamoyl)pyrrolidin-3-yl)-5-(1-methyl-1H-pyrazol-4-yl)nicotinamide]", "IC50": "10 to 100"}
{"smiles": "Cn1cc(-c2cnc(N)c(C(=O)N[C@@H]3CCN(C(=O)Nc4ccc(-c5cccc(CN)c5)cc4)C3)c2)cn1", "note": "[Example 269, (R)-2-amino-N-(1-((3′-(aminomethyl)-[1,1′-biphenyl]-4-yl)carbamoyl)pyrrolidin-3-yl)-5-(1-methyl-1H-pyrazol-4-yl)nicotinamide]", "IC50": "10 to 100"}
{"smiles": "CN1CCN(Cc2cccc(-c3ccc(NC(=O)N4CC[C@@H](NC(=O)c5cc(-c6cnn(C)c6)cnc5N)C4)cc3)c2)CC1", "note": "[Example 272, (R)-2-amino-5-(1-methyl-1H-pyrazol-4-yl)-N-(1-((3′-((4-methylpiperazin-1-yl)methyl)-[1,1′-biphenyl]-4-yl)carbamoyl)pyrrolidin-3-yl)nicotinamide]", "IC50": "100 to 1000"}
{"smiles": "CN1CCN(Cc2ccc(-c3ccc(NC(=O)N4CC[C@@H](NC(=O)c5cc(-c6cnn(C)c6)cnc5N)C4)cc3)cc2)CC1", "note": "[Example 273, (R)-2-amino-5-(1-methyl-1H-pyrazol-4-yl)-N-(1-((4′-((4-methylpiperazin-1-yl)methyl)-[1,1′-biphenyl]-4-yl)carbamoyl)pyrrolidin-3-yl)nicotinamide]", "IC50": "> 1000"}
{"smiles": "Cn1cc(-c2cnc(N)c(C(=O)N[C@@H]3CCN(C(=O)Oc4cccc(-c5ccc(CCC(=O)O)cc5)c4)C3)c2)cn1", "note": "[Example 276, (R)-3-(3′-((3-(2-amino-5-(1-methyl-1H-pyrazol-4-yl)nicotinamido)pyrrolidine-1-carbonyl)oxy)-[1,1′-biphenyl]-4-yl) propanoic acid]", "IC50": "100 to 1000"}
{"smiles": "Cn1cc(-c2cnc(N)c(C(=O)N[C@@H]3CCN(C(=O)Oc4cccc(-c5cccc(C(=O)NCCC#N)c5)c4)C3)c2)cn1", "note": "[Example 277, 3′-((2-cyanoethyl)carbamoyl)-[1,1′-biphenyl]-3-yl (R)-3-(2-amino-5-(1-methyl-1H-pyrazol-4-yl)nicotinamido)pyrrolidine-1-carboxylate]", "IC50": "100 to 1000"}
{"smiles": "Cn1cc(-c2cnc(N)c(C(=O)N[C@@H]3CCN(C(=O)Oc4cccc(-c5cnn(Cc6ccccc6)c5)c4)C3)c2)cn1", "note": "[Example 283, 3-(1-benzyl-1H-pyrazol-4-yl)phenyl (R)-3-(2-amino-5-(1-methyl-1H-pyrazol-4-yl)nicotinamido)pyrrolidine-1-carboxylate]", "IC50": "100 to 1000"}
{"smiles": "Cn1cc(-c2cnc(N)c(C(=O)N[C@@H]3CCN(C(=O)Oc4cccc(-c5cnn(C6CCNCC6)c5)c4)C3)c2)cn1", "note": "[Example 285, 3-(1-(piperidin-4-yl)-1H-pyrazol-4-yl)phenyl (R)-3-(2-amino-5-(1-methyl-1H-pyrazol-4-yl)nicotinamido)pyrrolidine-1-carboxylate]", "IC50": "100 to 1000"}
{"smiles": "Cn1cc(-c2cnc(N)c(C(=O)N[C@@H]3CCN(C(=O)Oc4cccc(-c5cnn(CCN6CCCC6)c5)c4)C3)c2)cn1", "note": "[Example 286, 3-(1-(2-(pyrrolidin-1-yl)ethyl)-1H-pyrazol-4-yl)phenyl (R)-3-(2-amino-5-(1-methyl-1H-pyrazol-4-yl)nicotinamido)pyrrolidine-1-carboxylate]", "IC50": "100 to 1000"}
{"smiles": "Cn1cc(-c2cnc(N)c(C(=O)N[C@@H]3CCN(C(=O)Oc4cc(Cl)cc(-c5ccc(CO)cc5)c4)C3)c2)cn1", "note": "[Example 291, 5-chloro-4′-(hydroxymethyl)-[1,1′-biphenyl]-3-yl (R)-3-(2-amino-5-(1-methyl-1H-pyrazol-4-yl)nicotinamido)pyrrolidine-1-carboxylate]", "IC50": "10 to 100"}
{"smiles": "CN1CCN(Cc2ccc(-c3cc(Cl)cc(OC(=O)N4CC[C@@H](NC(=O)c5cc(-c6cnn(C)c6)cnc5N)C4)c3)cc2)CC1", "note": "[Example 292, 5-chloro-4′-((4-methylpiperazin-1-yl)methyl)-[1,1′-biphenyl]-3-yl (R)-3-(2-amino-5-(1-methyl-1H-pyrazol-4-yl)nicotinamido)pyrrolidine-1-carboxylate]", "IC50": "< 10"}
{"smiles": "Cn1cc(-c2cnc(N)c(C(=O)N[C@@H]3CCN(C(=O)Oc4ccc5ccc(OC6CCNCC6)cc5c4)C3)c2)cn1", "note": "[Example 294, 7-(piperidin-4-yloxy)naphthalen-2-yl (R)-3-(2-amino-5-(1-methyl-1H-pyrazol-4-yl)nicotinamido)pyrrolidine-1-carboxylate]", "IC50": "10 to 100"}
{"smiles": "CN(C)CCCOc1ccc2ccc(OC(=O)N3CC[C@@H](NC(=O)c4cc(-c5cnn(C)c5)cnc4N)C3)cc2c1", "note": "[Example 295, 7-(3-(dimethylamino)propoxy)naphthalen-2-yl (R)-3-(2-amino-5-(1-methyl-1H-pyrazol-4-yl)nicotinamido)pyrrolidine-1-carboxylate]", "IC50": "10 to 100"}
{"smiles": "CN(C)CCOc1ccc2ccc(OC(=O)N3CC[C@@H](NC(=O)c4cc(-c5cnn(C)c5)cnc4N)C3)cc2c1", "note": "[Example 296, 7-(2-(dimethylamino)ethoxy)naphthalen-2-yl (R)-3-(2-amino-5-(1-methyl-1H-pyrazol-4-yl)nicotinamido)pyrrolidine-1-carboxylate]", "IC50": "10 to 100"}
{"smiles": "CN1CCC(Oc2ccc3ccc(OC(=O)N4CC[C@@H](NC(=O)c5cc(-c6cnn(C)c6)cnc5N)C4)cc3c2)CC1", "note": "[Example 297, 7-((1-methylpiperidin-4-yl)oxy)naphthalen-2-yl (R)-3-(2-amino-5-(1-methyl-1H-pyrazol-4-yl)nicotinamido)pyrrolidine-1-carboxylate]", "IC50": "100 to 1000"}
{"smiles": "CN(C)CCOc1ccc2cc(OC(=O)N3CC[C@@H](NC(=O)c4cc(-c5cnn(C)c5)cnc4N)C3)ccc2c1", "note": "[Example 300, 6-(2-(dimethylamino)ethoxy)naphthalen-2-yl (R)-3-(2-amino-5-(1-methyl-1H-pyrazol-4-yl)nicotinamido)pyrrolidine-1-carboxylate]", "IC50": "100 to 1000"}
{"smiles": "CN(C)CCCOc1ccc2cc(OC(=O)N3CC[C@@H](NC(=O)c4cc(-c5cnn(C)c5)cnc4N)C3)ccc2c1", "note": "[Example 301, 6-(3-(dimethylamino)propoxy)naphthalen-2-yl (R)-3-(2-amino-5-(1-methyl-1H-pyrazol-4-yl)nicotinamido)pyrrolidine-1-carboxylate]", "IC50": "100 to 1000"}
{"smiles": "Cn1cc(-c2cnc(N)c(C(=O)N[C@@H]3CCN(C(=O)Oc4ccc5cc(OC6CCNCC6)ccc5c4)C3)c2)cn1", "note": "[Example 302, 6-(piperidin-4-yloxy)naphthalen-2-yl (R)-3-(2-amino-5-(1-methyl-1H-pyrazol-4-yl)nicotinamido)pyrrolidine-1-carboxylate]", "IC50": "10 to 100"}
{"smiles": "Cn1cc(-c2cnc(N)c(C(=O)N[C@@H]3CCN(C(=O)Oc4cccc(OCC5CCNCC5)c4)C3)c2)cn1", "note": "[Example 304]", "IC50": "100 to 1000"}
{"smiles": "Cn1cc(-c2cnc(N)c(C(=O)N[C@@H]3CCN(C(=O)Oc4cccc(-c5ccc(CNCC6CNC6)cc5)c4)C3)c2)cn1", "note": "[Example 309, 4′-(((azetidin-3-ylmethyl)amino)methyl)-[1,1′-biphenyl]-3-yl (R)-3-(2-amino-5-(1-methyl-1H-pyrazol-4-yl)nicotinamido)pyrrolidine-1-carboxylate]", "IC50": "10 to 100"}
{"smiles": "Cn1cc(-c2cnc(N)c(C(=O)N[C@@H]3CCN(C(=O)Oc4cccc(-c5ccc(CN6CCC(N)CC6)cc5)c4)C3)c2)cn1", "note": "[Example 317, 4′-((4-aminopiperidin-1-yl)methyl)-[1,1′-biphenyl]-3-yl (R)-3-(2-amino-5-(1-methyl-1H-pyrazol-4-yl)nicotinamido)pyrrolidine-1-carboxylate]", "IC50": "10 to 100"}
{"smiles": "Cn1cc(-c2cnc(N)c(C(=O)N[C@@H]3CCN(C(=O)Oc4cccc(-c5ccc(CNCC(=O)O)cc5)c4)C3)c2)cn1", "note": "[Example 326, (R)-((3′-((3-(2-amino-5-(1-methyl-1H-pyrazol-4-yl)nicotinamido)pyrrolidine-1-carbonyl)oxy)-[1,1′-biphenyl]-4-yl)methyl)glycine]", "IC50": "100 to 1000"}
{"smiles": "Cn1cc(-c2cnc(N)c(C(=O)N[C@@H]3CCN(C(=O)Oc4cccc(-c5ccc(CN6CC[C@@H](N)C6)cc5)c4)C3)c2)cn1", "note": "[Example 330, 4′-(((R)-3-aminopyrrolidin-1-yl)methyl)-[1,1′-biphenyl]-3-yl (R)-3-(2-amino-5-(1-methyl-1H-pyrazol-4-yl)nicotinamido)pyrrolidine-1-carboxylate]", "IC50": "10 to 100"}
{"smiles": "Cn1cc(-c2cnc(N)c(C(=O)N[C@@H]3CCN(C(=O)Oc4cccc(-c5ccc(CN6CC[C@H](N)C6)cc5)c4)C3)c2)cn1", "note": "[Example 331, 4′-(((S)-3-aminopyrrolidin-1-yl)methyl)-[1,1′-biphenyl]-3-yl (R)-3-(2-amino-5-(1-methyl-1H-pyrazol-4-yl)nicotinamido)pyrrolidine-1-carboxylate]", "IC50": "10 to 100"}
